Source: patent publication US20260132160A1, “IRON REPLACEMENT TREATMENTS” (The General Hospital Corporation, priority 2022, published 2026)
“Also recorded” adds a separate entry of the source.

Legend:
normal male C57BL/6 mice = assay: Serum nonheme iron parameters after i.v. injection (ferrozine assay); assay type: in vivo, mouse
Protocol: The in vivo efficacy of Fe-BBG as a direct-to-transferrin Fe replacement drug was preliminary evaluated in normal male C57BL/6mice. Mice received either 0.01 mmol Fe-BBG/kg (0.56 μg Fe per g body weight), 0.1 mmol Fe-BBG/kg (5.6 μg Fe per g body weight), or placebo (saline vehicle) via tail vein injection and were euthanized either 5 min, 60 min or 100 min post-injection. Serum nonheme iron parameters were then quantified using the spectrophotometric ferrozine assay.
FIG. 9 compares serum iron, total iron binding capacibity (TIBC), and unbound iron binding capacity (UIBC), recorded in mice treated with placebo and in serum harvested either 5 min, 60 min, or 100 min after Fe-BBG injection. The percentage transferrin saturation (% TSAT) was calculated at the 60 min and 100 min time points, at which point Fe-BBG and the BBG ligand remaining after trans-chelation with apo-transferrin had diminished to levels that will not interfere with the spectrophotometric assay.

[1] = Labile iron in serum after i.v. injection (dihydrorhodamine 123 oxidation); assay type: in vivo, mouse
Protocol: These are the same serum samples as in FIG. 9. The assay was performed as described in Blood 2003, 102 (7), 2670-2677.
To quantify labile iron released by Fe-BBG after intravenous injection, male C57BL/6 mice received either 0.01 mmol Fe-BBG/kg (0.56 μg Fe per g body weight), 0.1 mmol Fe-BBG/kg (5.6 μg Fe per g body weight), or placebo (saline vehicle) via tail vein injection and were euthanized either 5 min, 60 min or 100 min post-injection. Blood serum was harvested and labile Fe in each sample quantified by spectrophotometrically monitoring the rate of dihydrorhodamine 123 oxidation under redox forcing conditions, as reported in Blood 2003, 102 (7), 2670-2677 and described below:
Quadruplicates of 20 μL serum were transferred to clear-bottom 96-well plates. To 2 of the wells was added 180 μL iron-free HEPES buffered saline (HBS) (preincubated at 37° C.) containing 40 μM ascorbate and 50 µM dihydrorhodamine 123 (DHR). […] The kinetics of fluorescence increase were followed at 37° C. in a Molecular Devices FlexStation 3 microplate reader with 485/538 nm excitation/emission filter pair, for 40 minutes, with readings every 2 minutes. The slopes (R) of DHR fluorescence intensity with time were calculated from measurements taken between 16 and 40 minutes and are given as FU·minute^−1 (fluorescence units per minute). […]

[2] = 0.56 or 5.6 μg Fe per g i.v., 5, 60, 100 min, vs placebo

With `O.O.O=C([O-])CC[C@H]1C(=O)[O][Fe]2[O]c3ccccc3CN1Cc1ccccc1[O]2` [Fe-BBG] the serum iron (normal male C57BL/6 mice; [2]) was “rapidly raises”, the “total iron binding capacity (TIBC)” value (normal male C57BL/6 mice; [2]) was “rapidly raises; also recorded: does not decrease” and the “unbound iron binding capacity (UIBC)” value (normal male C57BL/6 mice; 0.56 or 5.6 μg Fe per g i.v., vs placebo) was “does not reduce UIBC significantly”. The “percentage transferrin saturation (% TSAT)” value (normal male C57BL/6 mice; 60 and 100 min, vs placebo) was “elevates % TSAT significantly”, the “total serum nonheme Fe relative to placebo treated mice” value (normal male C57BL/6 mice; 5 min after 5.6 μg Fe/g) was 25 fold and the “labile iron release in vivo” value ([1]; 0.56 or 5.6 μg Fe per g, 5, 60, 100 min) was “does not contribute detectable quantities of labile Fe; also recorded: does not release labile iron in vivo”. The “labile Fe concentration in serum” value ([1]; 5 min after injection of 5.6 μg Fe/g) was less than 0.2 µM.
